Experimental findings from patent US11649238B2, “Substituted pyrazolo[1,5-a]pyrimidines as PI4K inhibitors” (GLAXOSMITHKLINE INTELLECTUAL PROPERTY DEVELOPMENT LIMITED, priority 2018, dated 2023) are described below.

A value given as a limit tells only on which side of the number the result lay.

Data set [1] is described as follows: Human Microsomal Metabolic Stability Assay. Type of data set: in vitro ADME. To be noted: 0.5 μM test compound, 0.5 mg/mL microsomal protein, 45 min. The protocol: d) Human Microsomal Metabolic Stability Assay Protocol Summary Test compound (0.5 μM) was incubated with pooled liver microsomes. Test compound was incubated over the course of a 45 min experiment and the test compound was analysed by LC-MS/MS. Experimental Procedure Pooled human liver microsomes were purchased from a reputable commercial supplier, for example Corning Life Sciences. Microsomes (final protein concentration 0.5 mg/mL), 50 mM phosphate buffer pH7.4 and NADPH (final concentration=1 mM) were pre-incubated at 37° C. prior to the addition of test compound (final substrate concentration=0.5 μM; final DMSO concentration=0.25%) to initiate the reaction. The final incubation volume was 500 μL. A control incubation was included for each compound tested where 50 mM phosphate buffer pH7.4 was added instead of NADPH (minus NADPH). Two control compounds were included with each species. All incubations are performed singularly for each test compound. Each compound was incubated for 45 minutes and samples (50 μL) of incubate were taken at 0, 5, 15, 30 and 45 min. The control (minus NADPH) was sampled at 45 min only. The reactions were stopped by the addition of 100 μL acetonitrile containing internal standard to the sample. The terminated samples were centrifuged at 2,500 rpm for 20 min at 4° C. to precipitate the protein. Quantitative Analysis Following protein precipitation, the samples were analysed using generic LC-MS/MS conditions. Data Analysis From a plot of In peak area ratio (compound peak area/internal standard peak area) against time, the gradient of the line was determined. Subsequently, intrinsic clearance was calculated using the equations below, then converted to mL/min/g: Elimination rate constant (k)=(−gradient) Half life (t½) (min)=0.693+k Intrinsic Clearance (CLint) (μL/min/mg protein)=(V×0.693)+t1/2 where V=Incubation volume μL/mg microsomal protein.

Data set [2] deals with human rhinovirus Type A Strain 16 (HRVA16) in HeLa Ohio cells. Kind of data set: Cytopathic Effect (CPE) Assay, ATP-depletion in infected HeLa Ohio cells. The data set is classed as cell-based. Conditions: HRVA16 at MOI of 1, 33° C. for 2 days, CellTiter-Glo. The method, then:
c) Cytopathic Effect (CPE) Assay Protocol
The in vitro inhibition of PI4 KB activity was determined by analysis of the inhibition of ATP-depletion in HeLa Ohio cells in response to infection with human rhinovirus Type A Strain 16 (HRVA16). ATP levels were determined using CellTiter-GLO reagent from Promega. Compounds that inhibit PI4 KB are also potent inhibitors of human rhinoviruses and are able to protect HeLa Ohio cells from CPE induced by viral infection and replication. Protected cells remain viable following viral infection and therefore have greater ATP levels.
Compounds were dissolved in 100% DMSO to a concentration of 3 mM and subsequent dilutions were prepared in 100% DMSO using a 1:3 serial step dilution. A 0.5 μL stamp from an 10-point titration was transferred to a white 96 well Greiner tissue culture flat bottom plate (655083). A 0.5 μL stamp of 100% DMSO was stamped into columns 11 and 12 of the plate, ensuring a final assay DMSO concentration of 0.33% across the plate and a compound top final assay concentration of 10 μM.
HeLa Ohio cells were cultured at 37° C., 5% CO2 in media (DMEM supplemented with 10% Australian origin foetal bovine serum and 2 mM glutamax). Cells were passaged when confluency reached >80%. For the assay, cells were grown to 80-90% confluency before detachment.
Cells were detached for the assay by washing with PBS and detached using 3 mL TrypLE Express for […] at 37° C. Detached cells were mixed with 7 mL of media and centrifuged at 300 g for 5 min. The cell pellet was resuspended in 50 mL media and counted on a Beckman Coulter ViCell. Cells were diluted to 6.6×10^4 cells/mL and some of the cell volume was removed into a new tube to be used as a column 12 control. HRVA16 stock was added to the remaining cell suspension at the appropriate dilution for the virus stock to achieve an MOI of 1.
150 μL of the cell+virus suspension was added per well to columns 1-11 using a Multidrop Combi. 150 μL of the separate cell suspension was added per well to columns 12 using a multichannel pipette. Assay plates were sealed and incubated at 33° C., 5% CO2 for 2 days. After 2 days, assay plates were removed from the incubator and allowed to equilibrate to room temperature. 60 μL of CellTiter-Glo reagent was added to all wells using a Thermo Scientific Multidrop Combi. Plates were incubated at room temperature for 20 min before reading on an a Perkin Elmer Envision (Settings: Gripper height 2.5, Fixed measurement height (mm) 6.5, Distance between plate and detector 0, Measurement time (s) 0.1, Glow (ct2) correction factor (0%)).
The inhibitory effect of the compounds on the PI4 KB activity was evaluated by the IC50 of the response relative to the high (no virus, column 12) and low (virus+no inhibitor, column 11) controls by fitting to a four parameter dose response equation.

A short description of data set [3]: Spleen Concentration Assay. To be noted: male, Wistar Han, rat, intravenous, 1 mg/kg, intravenous infusion 1 mg/kg over 1 h, single male Wistar Han rat, 12 hours after the start of dosing. Type of data set: in vivo. The method, then:
e) Spleen Concentration Assay Compounds 17, 18, 19, 22 and 23 were tested in this spleen accumulation assay. Compounds were administered intravenously to rats to determine what the level of the compound in the spleen would be if all of the inhaled dose was absorbed (either orally or through the lungs) and systemic circulation was exposed to the full dose. Compounds 17, 19, 22 and 23 were formulated in 2% DMSO in Kleptose (aq, 10% w/v). Compound 18 was formulated in a 5:45:50 ratio of DMSO:PEG200:water. Formulations were administered as intravenous infusions (1 mg/kg over 1 h) to a single male, Wistar Han rat. 12 hours after the start of dosing, rats were euthanised and spleens were collected. Approximately 0.5 g samples of spleen were taken and homogenised in 4 mL water. 100 μL of the resulting homogenates were prepared by protein precipitation with 300 μL of acetonitrile containing an internal standard and assayed (along with calibration standards prepared in the same manner) by reversed-phase liquid chromatography-mass spectrometry, using a heated electrospray source and operated in the positive ion multiple reaction monitoring mode. The liquid chromatography column used was a Waters Cortecs C18 2.7 μm particle size, 50×2.1 mm column at 60° C., and the mobile phase, operated as a gradient, utilised (A) 0.1% formic acid (aq) and (B) 0.1% formic acid in acetonitrile, operated at a flow rate of 1 mL/min.

In data set [1], `Cc1ccc(-c2c(C)nn3c(NCc4cccc(-c5nccn5C)c4)cc(C(C)(C)O)nc23)cc1C(=O)N(C)CCCO` [Compound 17, 5-(5-(2-Hydroxypropan-2-yl)-2-methyl-7-((3-(1-methyl-1H-imidazol-2-yl)benzyl)amino)pyrazolo[1,5-a]pyrimidin-3-yl)-N-(3-hydroxypropyl)-N,2-dimethylbenzamide] gave an intrinsic clearance of 28.9 mL/min/g. In data set [2], the “mean pIC50” value amounted to 8.9.

As for `CCN(CCO)C(=O)c1cc(-c2c(C)nn3c(NCc4cccc(-c5nccn5C)c4)cc(C(C)(C)O)nc23)ccc1OC` [Compound 19, N-ethyl-N-(2-hydroxyethyl)-5-(5-(2-hydroxypropan-2-yl)-2-methyl-7-((3-(1-methyl-1H-imidazol-2-yl)benzyl)amino)pyrazolo[1,5-a]pyrimidin-3-yl)-2-methoxybenzamide], in data set [1], the intrinsic clearance came out at 11.6 mL/min/g. In addition, in data set [3], the concentration at 12 h was less than 7 ng/g. For the same compound, the “mean pIC50” value in data set [2] is 8.9.

In turn, `COc1ccc(-c2c(C)nn3c(NCc4cccc(-c5nccn5C)c4)cc(C(C)(C)O)nc23)cc1C(=O)N(C)C1CCOCC1` [Compound 21, 5-(5-(2-Hydroxypropan-2-yl)-2-methyl-7-((3-(1-methyl-1H-imidazol-2-yl)benzyl)amino)pyrazolo[1,5-a]pyrimidin-3-yl)-2-methoxy-N-methyl-N-(tetrahydro-2H-pyran-4-yl)benzamide] registered an intrinsic clearance in data set [1] of 34.0 mL/min/g. Further, in data set [2], the “mean pIC50” value is 8.8.

Compound `Cc1ccc(-c2c(C)nn3c(NCc4cccc(-c5nccn5C)c4)cc(C(C)(C)O)nc23)cc1C(=O)N(C)[C@@H](C)CO` [Compound 22, (S)—N-(1-hydroxypropan-2-yl)-5-(5-(2-hydroxypropan-2-yl)-2-methyl-7-((3-(1-methyl-1H-imidazol-2-yl)benzyl)amino)pyrazolo[1,5-a]pyrimidin-3-yl)-N,2-dimethylbenzamide] had an intrinsic clearance in data set [1] of 33.7 mL/min/g. The concentration at 12 h in data set [3] was less than 7 ng/g. Besides, the “mean pIC50” value in data set [2] was “at least 9.1”.
